Laboratory results: patent US5965744A, “Ortho-substituted benzoylguanidines, including composition and methods of using them” (priority 1993, dated 1999)
Where a name gives a salt, the structure may show the parent alone.

Key:
[1] = biological target: T1, Na^+ /H^+ Exchanger of Rabbit Erythrocytes (Oryctolagus cuniculus, UniProt P23791); assay: Inhibition of the Na^+ /H^+ Exchanger of Rabbit Erythrocytes (Na^+ influx by flame photometry); type: cell-based, rabbit (New Zealand White); conditions: cholesterol-fed rabbits, pH 7.4, 37° C.
T1 construct: The blood was removed from the aural arteries; endogenous in cells; host or cells: erythrocytes of cholesterol-fed New Zealand White rabbits (whole blood samples)
From the text: Inhibition of the Na^+ /H^+ Exchanger of Rabbit Erythrocytes
New Zealand White rabbits (Ivanovas) received a standard diet containing 2% cholesterol for six weeks in order to activate the Na^+ /H^+ exchange and thus to be able to determine, by flame photometry, the Na^+ influx into the erythrocytes via Na^+ /H^+ exchange. The blood was removed from the aural arteries and rendered incoagulable using 25 IU of potassium heparin. A part of each sample was used for the duplicate determination of the hematocrit by means of centrifugation. Aliquots of in each case 100 μl were used for measuring the initial Na^+ content of the erythrocytes.
In order to determine the amiloride-sensitive sodium influx, 100 μl of each blood sample were in each case incubated, at pH 7.4 and 37° C., in 5 ml of a hyperosmolar salt/sucrose medium (mmol/l: 140 NaCl, 3 KCl, 150 sucrose, 0.1 ouabain, 20 tris(hydroxymethyl)aminomethane). The erythrocytes were then washed three times with ice-cold MgCl2 /ouabain solution ([…]: 112 MgCl2, 0.1 ouabain) and hemolyzed in 2.0 ml of distilled water. The intracellular sodium content was determined by flame photometry.
The net influx of Na^+ was calculated from the difference between the initial sodium values and the sodium content of the erythrocytes following incubation. The amiloride-inhibitable sodium influx was calculated from the difference in the sodium content of the erythrocytes following incubation with and without amiloride 3×10^-4 mol/l. This method was also employed in the case of the compounds according to the invention.

rat hearts = conditions: isolated rat hearts, cited from earlier work
cardiac arrhythmia = conditions: cited from earlier work

T1 sequence (P23791 whole entry): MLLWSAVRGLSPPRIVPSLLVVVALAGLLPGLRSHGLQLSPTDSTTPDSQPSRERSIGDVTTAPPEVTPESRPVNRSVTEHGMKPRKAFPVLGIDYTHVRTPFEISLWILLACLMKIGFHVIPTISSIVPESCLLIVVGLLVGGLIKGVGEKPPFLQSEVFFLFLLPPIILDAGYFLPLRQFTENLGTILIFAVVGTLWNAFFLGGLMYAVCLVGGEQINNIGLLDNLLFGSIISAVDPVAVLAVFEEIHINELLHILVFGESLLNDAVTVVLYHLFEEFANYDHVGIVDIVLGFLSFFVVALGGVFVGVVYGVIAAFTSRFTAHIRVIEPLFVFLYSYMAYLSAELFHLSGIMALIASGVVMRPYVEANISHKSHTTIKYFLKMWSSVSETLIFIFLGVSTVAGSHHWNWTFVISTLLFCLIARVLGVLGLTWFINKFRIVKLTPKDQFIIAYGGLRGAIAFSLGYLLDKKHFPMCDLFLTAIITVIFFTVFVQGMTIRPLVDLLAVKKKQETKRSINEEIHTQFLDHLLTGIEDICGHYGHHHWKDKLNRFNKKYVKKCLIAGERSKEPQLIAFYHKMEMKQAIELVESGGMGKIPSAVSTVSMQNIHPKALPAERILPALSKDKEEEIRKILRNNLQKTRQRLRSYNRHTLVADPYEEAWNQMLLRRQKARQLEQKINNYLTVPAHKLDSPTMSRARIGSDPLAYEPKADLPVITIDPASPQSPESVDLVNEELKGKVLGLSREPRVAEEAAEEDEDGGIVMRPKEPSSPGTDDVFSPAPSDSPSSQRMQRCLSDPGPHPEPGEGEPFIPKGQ

| Structure (SMILES) | IC50 [1] [nM] | further results |
| --- | --- | --- |
| N=C(N)NC(=O)c1cccc(Cl)c1Cl [Example 1, 2,3-Dichlorobenzoylguanidine hydrochloride] | > 1000 | – |
| N=C(N)NC(=O)c1ccc(Cl)cc1Cl [Example 3, 2,4-Dichlorobenzoylguanidine hydrochloride] | 8000 | – |
| N=C(N)NC(=O)c1ccc(C(F)(F)F)cc1F [Example 4, 2-Fluoro-4-trifluoromethylbenzoylguanidine hydrochloride] | 3000 | – |
| N=C(N)NC(=O)c1nc(Cl)c(N)nc1N [amiloride, Amiloride] | – | suppression of artificially induced ventricular fibrillation (rat hearts): completely suppress; undesirable side effects when treating cardiac arrhythmia (cardiac arrhythmia; accompanying the antiarrhythmic effect): hypotensive and saluretic effects; antiarrhythmic effect (cardiac arrhythmia; as antiarrhythmic agent): only weakly expressed |
| CCN(c1nc(N)c(C(=O)NC(=N)N)nc1Cl)C(C)C [ethylisopropylamiloride, Ethylisopropylamiloride] | – | potency relative to amiloride in ventricular fibrillation model (rat hearts; compared with amiloride): even more potent than amiloride |

Now from value to molecule, other results behind:

| IC50 [1] [nM] | Structure (SMILES) | further results |
| --- | --- | --- |
| 2000 | N=C(N)NC(=O)c1cccc(C(F)(F)F)c1F [Example 2, 2-Fluoro-3-trifluoromethylbenzoylguanidine hydrochloride] | – |
| 2000 | Cc1ccc(C)c(C(=O)NC(=N)N)c1 [Example 5, 2,5-Dimethylbenzoylguanidine hydrochloride] | – |
| 1500 | N=C(N)NC(=O)c1cc(Cl)ccc1Cl [Example 6, 2,5-Dichlorobenzoylguanidine hydrochloride] | – |
| 160 | N=C(N)NC(=O)c1cc(C(F)(F)F)ccc1C(F)(F)F [Example 7, 2,5-Bis(trifluoromethyl)benzoylguanidine hydrochloride] | – |
| 700 | N=C(N)NC(=O)c1cc(C(F)(F)F)ccc1F [Example 8, 2-Fluoro-5-trifluoromethylbenzoylguanidine hydrochloride] | – |
| 160 | N=C(N)NC(=O)c1cc(C(F)(F)F)ccc1Cl [Example 9, 2-Chloro-5-trifluoromethylbenzoylguanidine hydrochloride] | – |
| 90 | N=C(N)NC(=O)c1cc(I)cc(C(F)(F)F)c1F [Example 10, 2-Fluoro-5-iodo-3-trifluoromethylbenzoylguanidine hydrochloride] | – |
